Converted amounts (≈) assume the structure as drawn. Read-outs that look alike come from different tables or passages of the source.
How the values were obtained:
[1] = tested on: Staphylococcus aureus ATCC 12600; experiment: Inhibition of bacterial growth in culture (MIC, spiral gradient endpoint); assay type: cell-based; settings: for MIC: Staphylococcus aureus, ATCC12600, Mueller-Hinton II agar, 16 h at 37° C., read-out: MIC S. aureus 12600; for inhibition of Staphylococcus aureus compared with Myx B and 7-desmethyl-Myx B: summary of Table 3
Excerpt: (§1) Minimum inhibitory concentrations (MICs) for Staphylococcus aureus ATCC 12600, Enterococcus faecalis ATCC 19433, Acinetobacter baumannii ATCC 19606, and Escherichia coli D21f2tolC were quantified using spiral gradient endpoint assays, essentially as described [Wallace, A. and Corkill, J. (1989) Application of the spiral plating method to study antimicrobial action. J. Microbiol. Meths. […] Int. J. Exp. Clin. Chemother. 3, 31-38; Schalkowsky S. (1994) Measures of susceptibility from a spiral gradient of drug concentrations. Adv. Exp. Med. Biol. 349, 107-120]. Assays employed exponential-gradient plates containing 150 mm×4 mm Mueller-Hinton II cation-adjusted agar and 0.4-100 μg/ml of test compound. Plates were prepared using an Autoplate 4000 spiral plater (Spiral Biotech, Inc.). Saturated overnight cultures were swabbed radially onto plates, and plates were incubated for 16 h at 37° C. For each culture, the streak length was measured using a clear plastic template (Spiral Biotech, Inc.), the test-compound concentration at the streak endpoint was calculated using the program SGE (Spiral Biotech, Inc.), and the MIC was defined as the calculated test-compound concentration at the streak endpoint.

[2] = tested on: Escherichia coli D21f2tolC; experiment: as above; assay type: cell-based; settings: 16 h, read-out: MIC E. coli D21f2tolC
Excerpt: as §1

[3] = tested on: Acinetobacter baumannii ATCC 19606; experiment: as above; assay type: cell-based; settings: for MIC: Acinetobacter baumannii, ATCC19606, Mueller-Hinton II agar, 16 h at 37° C.
Excerpt: as §1

[4] = tested on: Enterococcus faecalis ATCC 19433; experiment: as above; assay type: cell-based; settings: for MIC: Enterococcus faecalis, ATCC19433, Mueller-Hinton II agar, 16 h at 37° C., read-out: MIC E. faecalis 19433
Excerpt: as §1

[5] = molecular target: E. coli RNA polymerase σ^70 holoenzyme (Escherichia coli, UniProt P0A8T7+P0A8V2); experiment: Inhibition of Escherichia coli RNA polymerase (fluorescence-detected); assay type: biochemical; settings: read-out: IC50 E. coli RNAP
Method: (§2) Fluorescence-detected RNA polymerase assays with E. coli RNA polymerase were performed by a modification of the procedure of Kuhlman et al., 2004 [Kuhlman, P., Duff, H. & Galant, A. (2004) A fluorescence-based assay for multisubunit DNA-dependent RNA polymerases. Anal. Biochem. 324, 183-190]. Reaction mixtures contained (20 μl): 0-100 nM test compound, 75 nM E. coli RNA polymerase σ^70 holoenzyme, 20 nM 384 bp DNA fragment containing the bacteriophage T4 N25 promoter, 100 μM ATP, 100 μM GTP, 100 μM UTP, 100 μM CTP, 50 mM Tris-HCl, pH 8.0, 100 mM KCl, 10 mM MgCl2, 1 mM DTT, 10 μg/ml bovine serum albumin, and 5.5% glycerol. Reaction components other than DNA and NTPs were pre-incubated for 10 min at 37° C. Reactions were carried out by addition of DNA and incubation for 5 min at 37° C., followed by addition of NTPs and incubation for 60 min at 37° C. DNA was removed by addition of 1 μl 5 mM CaCl2 and 2 U DNaseI (Ambion, Inc.), followed by incubation for 90 min at 37° C. RNA was quantified by addition of 100 μl RiboGreen RNA Quantitation Reagent (Invitrogen, Inc.; 1:500 dilution in Tris-HCl, pH 8.0, 1 mM EDTA), followed by incubation for 10 min at 25° C., followed by measurement of fluorescence intensity [excitation wavelength=485 nm and emission wavelength=535 nm; QuantaMaster QM1 spectrofluorometer (PTI, Inc.)].

S. aureus RNA polymerase = S. aureus RNA polymerase (Staphylococcus aureus, UniProt P47768+Q2G0N5); experiment: Inhibition of Staphylococcus aureus RNA polymerase (fluorescence-detected); assay type: biochemical
[6] = molecular target: M. tuberculosis RNA polymerase (Mycobacterium tuberculosis, UniProt P9WGY7+P9WGY9); experiment: Inhibition of Mycobacterium tuberculosis RNA polymerase (fluorescence-detected); assay type: biochemical
Method: as §2
Fluorescence-detected RNA polymerase assays with M. tuberculosis RNA polymerase were performed as in Example 17.1, using reaction mixtures containing (20 μl): 0-100 nM test compound, 75 nM M. tuberculosis RNA polymerase core enzyme, 300 nM M. tuberculosis σ^A, 20 nM 384 bp DNA fragment containing the bacteriophage […] N25 promoter, 100 μM ATP, 100 μM GTP, 100 μM UTP, 100 μM CTP, 40 mM Tris-HCl, pH 8.0, 80 mM NaCl, 5 mM MgCl2, 2.5 mM DTT, and 12.7% glycerol.

Staphylococcus aureus = experiment: Antibacterial efficacy in mouse model of Staphylococcus aureus systemic infection (peritonitis model); assay type: in vivo, Swiss Webster mice; settings: total dose 30 mg/kg iv
Method: Female Swiss Webster mice were experimentally infected by intraperitoneal administration of 5×10^7 colony forming units of Staphylococcus aureus in 10% hog gastric mucin. Test compounds (2-3 mg/ml in vehicle [9-19% dimethyacetamide/8-16% Cremophor EL in water, v/v]), positive controls (2 mg/ml vancomycin in vehicle), and negative controls (vehicle only and saline only), were administered by intravenous injection into a tail vein 1 h and 5 h post-infection (200 μl per injection). Survival was monitored for 12 h post-infection, or for 24, 48, and 72 h post-infection. At the end of the monitoring period, surviving animals were euthanized.

[7] = read-out: IC50 M. tuberculosis RNAP
[8] = Table 4c, vehicle 9% dimethylacetamide/8% Cremophor EL/83% water

Chain of S. aureus RNA polymerase (P0A0J0 whole entry): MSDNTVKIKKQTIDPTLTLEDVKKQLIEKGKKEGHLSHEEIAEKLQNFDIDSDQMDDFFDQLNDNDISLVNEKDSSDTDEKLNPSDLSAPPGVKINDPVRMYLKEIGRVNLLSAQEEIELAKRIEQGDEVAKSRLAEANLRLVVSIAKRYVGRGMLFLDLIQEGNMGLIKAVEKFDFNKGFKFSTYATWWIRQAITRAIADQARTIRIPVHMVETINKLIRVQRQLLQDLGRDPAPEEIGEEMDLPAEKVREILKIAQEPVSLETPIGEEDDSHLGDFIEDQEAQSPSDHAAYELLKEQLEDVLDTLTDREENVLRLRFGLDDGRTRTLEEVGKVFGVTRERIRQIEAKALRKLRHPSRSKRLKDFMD
Chain of S. aureus RNA polymerase (Q2G0N5 whole entry): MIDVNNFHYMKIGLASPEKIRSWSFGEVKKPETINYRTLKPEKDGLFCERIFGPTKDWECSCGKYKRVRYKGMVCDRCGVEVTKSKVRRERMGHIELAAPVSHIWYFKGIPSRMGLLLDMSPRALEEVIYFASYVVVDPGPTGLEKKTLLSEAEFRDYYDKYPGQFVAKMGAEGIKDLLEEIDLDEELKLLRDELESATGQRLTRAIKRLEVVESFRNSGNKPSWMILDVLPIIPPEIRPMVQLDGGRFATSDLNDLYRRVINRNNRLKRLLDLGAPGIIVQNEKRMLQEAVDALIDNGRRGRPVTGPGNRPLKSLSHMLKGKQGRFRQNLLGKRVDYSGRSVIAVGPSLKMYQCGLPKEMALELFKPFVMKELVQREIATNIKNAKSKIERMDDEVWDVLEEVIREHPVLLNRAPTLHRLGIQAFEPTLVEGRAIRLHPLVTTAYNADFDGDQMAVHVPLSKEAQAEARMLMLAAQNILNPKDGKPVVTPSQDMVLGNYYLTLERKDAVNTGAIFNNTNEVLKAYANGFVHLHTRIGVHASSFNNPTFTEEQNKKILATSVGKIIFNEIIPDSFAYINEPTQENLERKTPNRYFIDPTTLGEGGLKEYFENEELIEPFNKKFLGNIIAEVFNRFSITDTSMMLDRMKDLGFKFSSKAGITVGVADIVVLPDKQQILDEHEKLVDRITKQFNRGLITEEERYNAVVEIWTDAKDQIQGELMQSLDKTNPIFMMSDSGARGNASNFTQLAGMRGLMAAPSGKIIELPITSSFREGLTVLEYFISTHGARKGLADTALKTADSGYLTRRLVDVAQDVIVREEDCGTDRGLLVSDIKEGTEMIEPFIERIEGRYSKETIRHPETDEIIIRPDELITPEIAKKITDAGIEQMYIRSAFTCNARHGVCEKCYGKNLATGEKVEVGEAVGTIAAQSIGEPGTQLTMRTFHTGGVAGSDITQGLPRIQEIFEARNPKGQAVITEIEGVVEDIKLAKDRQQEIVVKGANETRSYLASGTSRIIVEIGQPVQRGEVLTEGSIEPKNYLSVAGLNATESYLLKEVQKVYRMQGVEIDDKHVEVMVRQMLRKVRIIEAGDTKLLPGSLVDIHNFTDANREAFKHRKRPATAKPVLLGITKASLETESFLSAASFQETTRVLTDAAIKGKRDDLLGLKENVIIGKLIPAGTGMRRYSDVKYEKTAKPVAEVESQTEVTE
Chain of S. aureus RNA polymerase (Q2FW32 whole entry, further chain): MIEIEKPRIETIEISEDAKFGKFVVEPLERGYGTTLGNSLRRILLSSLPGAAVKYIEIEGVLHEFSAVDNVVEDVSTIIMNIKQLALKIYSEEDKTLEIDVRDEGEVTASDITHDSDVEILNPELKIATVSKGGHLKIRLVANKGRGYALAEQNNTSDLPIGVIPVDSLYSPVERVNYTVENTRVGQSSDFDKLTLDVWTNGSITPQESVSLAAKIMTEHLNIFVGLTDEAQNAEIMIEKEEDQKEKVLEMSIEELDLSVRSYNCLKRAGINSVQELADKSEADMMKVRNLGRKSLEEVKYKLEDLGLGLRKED
Chain of S. aureus RNA polymerase (P47768 whole entry): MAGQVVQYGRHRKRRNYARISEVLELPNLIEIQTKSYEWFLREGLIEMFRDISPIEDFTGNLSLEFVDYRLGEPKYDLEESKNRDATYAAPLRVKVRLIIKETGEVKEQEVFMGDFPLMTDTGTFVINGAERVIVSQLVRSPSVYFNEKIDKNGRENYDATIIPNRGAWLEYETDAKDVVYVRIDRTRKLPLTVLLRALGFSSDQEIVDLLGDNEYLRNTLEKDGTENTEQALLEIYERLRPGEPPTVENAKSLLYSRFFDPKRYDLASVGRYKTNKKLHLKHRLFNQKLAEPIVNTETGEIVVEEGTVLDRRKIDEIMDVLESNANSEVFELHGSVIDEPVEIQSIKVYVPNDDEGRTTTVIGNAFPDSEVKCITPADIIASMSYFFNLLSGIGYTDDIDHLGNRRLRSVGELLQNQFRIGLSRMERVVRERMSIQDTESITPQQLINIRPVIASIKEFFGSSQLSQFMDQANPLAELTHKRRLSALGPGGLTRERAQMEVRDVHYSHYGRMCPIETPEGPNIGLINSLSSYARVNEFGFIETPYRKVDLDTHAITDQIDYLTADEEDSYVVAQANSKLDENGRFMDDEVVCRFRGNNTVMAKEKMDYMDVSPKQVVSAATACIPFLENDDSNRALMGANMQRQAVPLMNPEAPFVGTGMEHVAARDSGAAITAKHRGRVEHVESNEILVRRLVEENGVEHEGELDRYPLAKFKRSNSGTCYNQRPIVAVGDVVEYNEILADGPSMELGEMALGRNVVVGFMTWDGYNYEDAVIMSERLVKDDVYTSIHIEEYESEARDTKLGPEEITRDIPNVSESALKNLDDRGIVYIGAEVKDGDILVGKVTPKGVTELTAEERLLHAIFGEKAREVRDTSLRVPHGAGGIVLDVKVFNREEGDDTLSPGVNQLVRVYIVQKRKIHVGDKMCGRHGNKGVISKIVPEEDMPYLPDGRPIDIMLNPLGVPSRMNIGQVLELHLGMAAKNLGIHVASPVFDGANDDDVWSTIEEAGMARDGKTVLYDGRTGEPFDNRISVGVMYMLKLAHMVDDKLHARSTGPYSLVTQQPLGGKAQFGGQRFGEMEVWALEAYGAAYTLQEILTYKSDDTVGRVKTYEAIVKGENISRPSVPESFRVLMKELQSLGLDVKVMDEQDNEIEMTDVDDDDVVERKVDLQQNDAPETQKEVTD

SMILES | MIC [1] [µg/mL] | MIC [2] [µg/mL] | MIC [3] [µg/mL] | MIC [4] [µg/mL] | IC50 [5] [nM] | IC50 (S. aureus RNA polymerase; read-out: IC50 S. aureus RNAP) [nM] | IC50 [6, 7] [nM] | inhibition of Acinetobacter baumannii (in words) ([3]; summary of Table 3) | IC50 (S. aureus RNA polymerase) [nM] | IC50 [6] [nM] | inhibition of Staphylococcus aureus compared with Myx B and 7-desmethyl-Myx B [1] | inhibition of Enterococcus faecalis compared with Myx B and 7-desmethyl-Myx B ([4]; summary of Table 3) | 12-hour survival (Staphylococcus aureus; Table 4a, 1 h and 5 h post-infection, vehicle 19% dimethylacetamide/8% Cremophor EL/73% water) [%] | 12-hour survival (Staphylococcus aureus; Table 4b, vehicle 19% dimethylacetamide/16% Cremophor EL/73% water) [%] | 24-hour survival (Staphylococcus aureus; [8]) [%] | 48-hour survival (Staphylococcus aureus; [8]) [%] | 72-hour survival (Staphylococcus aureus; [8]) [%]
CCCCCCCC/C=C/C=C(\C)C(=O)c1c(O)cc([C@H](C)CC/C=C/NC(=O)OC)oc1=O (racemic) [compound 4, methyl ((E)-5-(4-hydroxy-3-((2E,4E)-2-methyltrideca-2,4-dienoyl)-2-oxo-2H-pyran-6-yl)hex-1-enyl)carbamate] | 9.4 (≈ 19.8 µM) | < 0.18 | 3.1 (≈ 6.55 µM) | > 40 | 4.6 | 8.3 | 320 | – | – | – | – | – | – | – | – | – | –
CCCC/C(C)=C/C=C(\C)C(=O)c1c(O)cc(CCC/C=C/NC(=O)OC)oc1=O [7-desmethyl-Myx B, Methyl ((E)-5-(3-((2E,4E)-2,5-dimethylnona-2,4-dienoyl)-4-hydroxy-2-oxo-2H-pyran-6-yl)pent-1-en-1-yl)carbamate, reference compound] | 3.1 (≈ 7.43 µM) | 0.195 (≈ 0.467 µM) | > 40 | 25 (≈ 59.9 µM) | 22 | – | – | not detectably inhibited | 140 | 81 | – | – | – | – | – | – | –
CCCCC/C=C/C=C(\C)C(=O)c1c(O)cc(C(C)CC/C=C/NC(=O)OC)oc1=O (stereo not drawn) [compound 1, Methyl ((E)-5-(4-hydroxy-3-((2E,4E)-2-methyldeca-2,4-dienoyl)-2-oxo-2H-pyran-6-yl)hex-1-en-1-yl)carbamate] | 1.4 (≈ 3.24 µM) | 0.3 (≈ 0.695 µM) | > 40 | > 40 | 12 | 52 | 85 | – | – | – | – | – | – | – | – | – | –
CCCCCC/C=C/C=C(\C)C(=O)c1c(O)cc(C(C)CC/C=C/NC(=O)OC)oc1=O (stereo not drawn) [compound 2, Methyl ((E)-5-(4-hydroxy-3-((2E,4E)-2-methylundeca-2,4-dienoyl)-2-oxo-2H-pyran-6-yl)hex-1-en-1-yl)carbamate] | 1.4 (≈ 3.14 µM) | 0.23 (≈ 0.516 µM) | 25 (≈ 56.1 µM) | > 40 | 11 | 23 | 70 | – | – | – | – | – | – | – | – | – | –
CCCCCCC/C=C/C=C(\C)C(=O)c1c(O)cc(C(C)CC/C=C/NC(=O)OC)oc1=O (stereo not drawn) [compound 3, Methyl ((E)-5-(4-hydroxy-3-((2E,4E)-2-methyldodeca-2,4-dienoyl)-2-oxo-2H-pyran-6-yl)hex-1-en-1-yl)carbamate] | 2.4 (≈ 5.22 µM) | < 0.18 | 5.6 (≈ 12.2 µM) | > 40 | 6.8 | 17 | 270 | – | – | – | – | – | – | – | – | – | –
CCCCCC/C(C)=C/C=C(\C)C(=O)c1c(O)cc(CCC/C=C/NC(=O)OC)oc1=O [compound 6, Methyl ((E)-5-(3-((2E,4E)-2,5-dimethylundeca-2,4-dienoyl)-4-hydroxy-2-oxo-2H-pyran-6-yl)pent-1-en-1-yl)carbamate] | 0.45 (≈ 1.01 µM) | 0.076 (≈ 0.171 µM) | 5.5 (≈ 12.3 µM) | 13 (≈ 29.2 µM) | 3.9 | 12 | 47 | – | – | – | more potently than Myx B and 7-desmethyl-Myx B | – | – | – | – | – | –
CCCCCC/C(C)=C/C=C(\C)C(=O)c1c(O)cc(CCC/C=C/NC(=O)OCC)oc1=O [compound 7, Ethyl ((E)-5-(3-((2E,4E)-2,5-dimethylundeca-2,4-dienoyl)-4-hydroxy-2-oxo-2H-pyran-6-yl)pent-1-en-1-yl)carbamate] | 12 (≈ 26.1 µM) | 0.37 (≈ 0.805 µM) | > 40 | > 40 | 63 | 93 | 450 | – | – | – | – | – | – | – | – | – | –
CCCCCC/C(C)=C/C=C(\C)C(=O)c1c(O)cc(C(C)CC/C=C/NC(=O)OC)oc1=O (stereo not drawn) [compound 9, Methyl ((E)-5-(3-((2E,4E)-2,5-dimethylundeca-2,4-dienoyl)-4-hydroxy-2-oxo-2H-pyran-6-yl)hex-1-en-1-yl)carbamate] | 0.34 (≈ 0.74 µM) | 0.076 (≈ 0.165 µM) | 5.5 (≈ 12 µM) | 6.4 (≈ 13.9 µM) | 4.7 | 13 | 36 | – | – | – | more potently than Myx B and 7-desmethyl-Myx B | more potently than Myx B and 7-desmethyl-Myx B | – | – | – | – | –
CCCCC/C(C)=C\C=C(/C)C(=O)c1c(O)cc(CCC/C=C/NC(=O)OC)oc1=O [compound 10, Methyl ((E)-5-(3-((2E,4Z)-2,5-dimethyldeca-2,4-dienoyl)-4-hydroxy-2-oxo-2H-pyran-6-yl)pent-1-en-1-yl)carbamate] | 3.3 (≈ 7.65 µM) | 0.39 (≈ 0.904 µM) | > 40 | > 40 | 40 | 100 | 340 | – | – | – | – | – | – | – | – | – | –
CN[C@H](CC(C)C)C(=O)N[C@H]1C(=O)N[C@@H](CC(N)=O)C(=O)N[C@H]2C(=O)N[C@H]3C(=O)N[C@H](C(=O)N[C@H](C(=O)O)c4cc(O)cc(O)c4-c4cc3ccc4O)[C@H](O)c3ccc(c(Cl)c3)Oc3cc2cc(c3O[C@@H]2O[C@H](CO)[C@@H](O)[C@H](O)[C@H]2O[C@H]2C[C@](C)(N)[C@H](O)[C@H](C)O2)Oc2ccc(cc2Cl)[C@H]1O [vancomycin] | – | – | – | – | – | – | – | – | – | – | – | – | 100 | 100 | 100 | 100 | 100

From patent US9133155B2, “Antibacterial agents: high-potency myxopyronin derivatives” (Rutgers, The State University of New Jersey, priority 2010, dated 2015)
